Earlier results as cited in US20240264148A1, “SYSTEM AND METHOD OF IDENTIFYING BIOMARKERS FOR CHEMO-RESISTANCE IN CANCER AND IDENTIFYING TARGETS THAT CAN REVERSE CHEMO-RESISTANCE IN CANCER” (OROC, priority 2019, published 2024).

System: recurrent ovarian cancer
Details: patients

For `Cc1nc(Nc2ncc(C(=O)Nc3c(C)cccc3Cl)s2)cc(N2CCN(CCO)CC2)n1` [Dasatinib], the safety and tolerability is listed as “safe to use as a drug with good tolerability”.
